pKi: −log10 of the molar value. Like-named read-outs stand apart in the source and are kept apart here.
Legend:
[1] = target: T1, human recombinant cathepsin K (Homo sapiens, UniProt P43235); test: Determination of cathepsin K proteolytic catalytic activity (Ki); assay type: biochemical
T1 construct: made in house; host or cells: not fixed: E coli, Pichia or Baculovirus systems named as options
T1 sequence (P43235 115-329): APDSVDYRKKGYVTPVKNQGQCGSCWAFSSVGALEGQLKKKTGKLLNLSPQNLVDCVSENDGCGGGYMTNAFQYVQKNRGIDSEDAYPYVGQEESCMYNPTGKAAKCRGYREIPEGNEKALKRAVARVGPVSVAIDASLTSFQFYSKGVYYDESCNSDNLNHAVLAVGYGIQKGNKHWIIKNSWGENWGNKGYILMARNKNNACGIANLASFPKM
Description: Convenient assays for cathepsin K are carried out using human recombinant enzyme, such as that described in PDB.
The recombinant cathepsin K can be expressed in a variety of commercially available expression systems including E coli, Pichia and Baculovirus systems. The purified enzyme is activated by removal of the prosequence by conventional methods.
Standard assay conditions for the determination of kinetic constants used a fluorogenic peptide substrate, typically H-D-Ala-Leu-Lys-AMC, and were determined in either 100 mM Mes/Tris, pH 7.0 containing 1 mM EDTA and 10 mM 2-mercaptoethanol or 100 mM Na phosphate, imM EDTA, 0.1% PEG4000 pH 6.5 or 100 mM Na acetate, pH 5.5 containing 5 mM EDTA and 20 mM cysteine, in each case optionally with […] as stabiliser. The enzyme concentration used was 5 nM. The stock substrate solution was prepared at 10 mM in DMSO. Screens were carried out at a fixed substrate concentration of 60 μM and detailed kinetic studies with doubling dilutions of substrate from 250 μM. The total DMSO concentration in the assay was kept below 3%. All assays were conducted at ambient temperature. Product fluorescence (excitation at 390 nm, emission at 460 nm) was monitored with a Labsystems Fluoroskan Ascent fluorescent plate reader. Product progress curves were generated over 15 minutes following generation of AMC product.
(§1) Potential inhibitors are screened using the above assay with variable concentrations of test compound. Reactions were initiated by addition of enzyme to buffered solutions of substrate and inhibitor. Ki values were calculated according to equation 1
(§2) [formula] where v0 is the velocity of the reaction, V is the maximal velocity, S is the concentration of substrate with Michaelis constant of KM, and/is the concentration of inhibitor.

human cathepsin L = human cathepsin L (Homo sapiens, UniProt P07711); test: Cathepsin L Ki; assay type: biochemical
Description: The procedure above with the following amendments is used for the determination of Ki for cathepsin L.
The enzyme is commercially available human cathepsin L (for example Calbiochem). The substrate is H-D-Val-Leu-Lys-AMC available from Bahcem. The assay buffer is 100 mM sodium acetate 1 mM EDTA, pH5.5) The DMSO stock (10 mM in 100% DMSO) is diluted to 10% in assay buffer. Enzyme is prepared at 5 nM concentration in assay buffer plus 1 mM dithiothreitol just before use. 2 ul of 10 mM inhibitor made up in 100% DMSO is dispensed into row A. 10 ul of 50 uM substrate (=1/200 dilution of 10 mM stock in DMSO, diluted in assay buffer)
as §1, §2

[2] = target: T2, baculovirus-expressed human cathepsin S (Homo sapiens, UniProt P25774); test: Cathepsin S Ki determination; assay type: biochemical
T2 construct: made in house
Description: 280 μl/well of 12.5% DMSO are added to rows B-H of two columns of a 96 deep well polypropylene plate. 70 μl/well of substrate is added to row A. 2×250 μl/well of assay buffer (100 mM Na phosphate, 100 mM NaCl, pH 6.5) is added to row A, mixed, and double diluted down the plate to row H. 100 μl/well of assay buffer is added to columns 2-5 and 7-12 of 4 rows of a 96 well V bottom polypropylene plate. 200 μl/well of assay buffer is added to columns 1 and 6. […] Add 90 μl assay buffer containing 1 mM DTT and 2 nM cathepsin S to each well of rows B-H and 180 μl to row A. Mix row A using a multichannel pipette and double dilute to row G. Mix row H and read in the fluorescent spectrophotometer. […] The second test compound is added to column 6 of the top row, the third to column 1 of the second row etc. Add 1 μl of comparator to column 6 of the bottom row. Mix column 1 and double dilute to column 5. Mix column 6 and double dilute to column 10. Using an 8-channel multistepping pipette set to 5×10 μl, distribute 10 μl/well of substrate to the 384 well assay plate. Distribute the first column of the substrate dilution plate to all columns of the assay plate starting at row A. The tip spacing of the multichannel pipette will correctly skip alternate rows. Distribute the second column to all columns starting at row B. Using a 12-channel multistepping pipette set to 4×10 μl, distribute 10 μl/well of inhibitor to the 384 well assay plate. Distribute the first row of the inhibitor dilution plate to alternate rows of the assay plate starting at A1. The tip spacing of the multichannel pipette will correctly skip alternate columns. Similarly, distribute the second, third and fourth rows to alternate rows and columns starting at A2, B1 and B2 respectively. Mix 20 ml assay buffer and 20 μl 1M DTT. Add sufficient cathepsin S to give 2 nM final concentration. Using the a distributor such as a Multidrop 384, add 30 μl/well to all wells of the assay plate and read in fluorescent spectrophotomoter such as an Ascent. Fluorescent readings, (excitation and emission wavelengths 390 nm and 460 nm respectively, set using bandpass filters) reflecting the extent of enzyme cleavage of the fluorescent substrate, notwithstanding the inhibitor, are linear rate fitted for each well. Fitted rates for all wells for each inhibitor are fitted to the competitive inhibition equation using SigmaPlot 2000 to determine V, Km and Ki values. Potential inhibitors are screened using the above assay with variable concentrations of test compound. Reactions were initiated by addition of enzyme to buffered solutions of substrate and inhibitor. Ki values were calculated according to equation 1 [formula] where v0 is the velocity of the reaction, V is the maximal velocity, S is the concentration of substrate with Michaelis constant of KM, and/is the concentration of inhibitor.

[3] = Metabolic stability in human hepatic cytosol assay; assay type: in vitro ADME
Description: Compounds of the invention and the indicated comparative examples were tested for metabolic stability in a cytosol assay in which the compounds were incubated with commercially available human hepatic cytosol fractions and the disappearance of the compound monitored by HPLC or LC/MS. Pooled human liver cytosol fractions are less likely to represent outlier individuals than blood from a single individual and can be stored frozen, unlike whole blood. The cytosol assay thus provides a consistent assay testbed as a guide to the stability of a compound in the in vivo environment, such as when exposed to whole blood.
In short, test compounds (2 μM) are incubated in pooled human liver cytosol (Xenotech LLC Lenexa US, 1 mg/mL protein in 0.1M phosphate buffer, pH 7.4) at 37° centigrade over a one hour period. The incubations are initiated by the addition of 1 mM NADPH co-factor. Timed sub-samples were taken at 0, 20, 40 and 60 minutes and “crash precipitated” by the addition of 3 volumes of ice-cold acetonitrile. The samples were centrifuged at reduced temperature and the supernatants were separated and analyzed by LC-MS-MS.

[4] = Caco-2 permeability (Papp); assay type: in vitro ADME; conditions: human; Caco-2 assay, standard concentration 10 μM
Description: The transport plate comprises 3 rows of 4 wells.
Determination of the cumulative fraction absorbed, FAcum, versus time. FAcum is calculated from: […]
A linear relationship should be obtained.

[5] = typical reference compounds (markers) for the Caco-2 assay; cited from earlier work
[6] = 2 μM in pooled human liver cytosol, 1 mg/mL protein, pH 7.4, 37°, 1 mM NADPH
[7] = representative values from specific batches of compound/enzyme/assay occasion

human cathepsin L, sequence (P07711 114-333): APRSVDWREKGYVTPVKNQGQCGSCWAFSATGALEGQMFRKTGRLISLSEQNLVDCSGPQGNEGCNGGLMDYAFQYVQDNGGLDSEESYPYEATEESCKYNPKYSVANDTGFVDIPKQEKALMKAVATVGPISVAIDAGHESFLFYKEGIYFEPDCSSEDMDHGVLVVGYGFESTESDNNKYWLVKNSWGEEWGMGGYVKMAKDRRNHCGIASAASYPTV
T2 sequence (P25774 115-331): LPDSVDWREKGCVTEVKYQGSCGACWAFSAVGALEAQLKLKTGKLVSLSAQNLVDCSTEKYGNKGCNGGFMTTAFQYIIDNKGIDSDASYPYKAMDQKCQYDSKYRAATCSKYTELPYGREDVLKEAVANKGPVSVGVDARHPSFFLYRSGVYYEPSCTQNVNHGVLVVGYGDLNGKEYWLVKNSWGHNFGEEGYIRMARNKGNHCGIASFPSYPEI

| SMILES | pKi ([1]; Table 1, class symbols) | pKi (human cathepsin L; Table 1, class symbols) | pKi ([2]; Table 1, class symbols) | half-life at 2 μM [3, 6] | pKi [1, 7] | pKi (human cathepsin L; [7]) | pKi [2, 7] | further results |
| --- | --- | --- | --- | --- | --- | --- | --- | --- |
| CC(C)C[C@H](NC(c1ccc(-c2ccc(S(C)(=O)=O)cc2)cc1)C(F)(F)F)C(=O)N1C[C@@H](Cl)[C@H]2OCC(=O)[C@H]21 (stereo in doubt) [Example 13, 6-Chloro-4-{4-methyl-2-[2,2,2-trifluoro-1-(4′-methanesulfonyl-biphenyl-4-yl)-ethylamino]-pentanoyl}-tetrahydro-furo[3,2-b]pyrrol-3-one] | > 7.30 | 5.30 to 6.00 | < 5.00 |  |  |  |  |  |
| CC(C)C[C@H](NC(=O)c1ccc(-c2csc(N3CCN(C)CC3)n2)cc1)C(=O)N1C[C@H](Cl)[C@H]2OCC(=O)[C@H]21 [Comparative Example 1, reference compound] |  |  |  | 0.4 h |  |  |  |  |
| Cc1sc(N2CCN(C)CC2)nc1-c1ccc(C(=O)N[C@@H](CC(C)C)C(=O)N2CC[C@H]3OCC(=O)[C@H]32)cc1 [Comparative Example 2, reference compound] |  |  |  | 1.2 h |  |  |  | cytosol half life ([3]; human liver cytosol): a little over an hour |
| Cc1sc(N2CCN(C)CC2)nc1-c1ccc(C(=O)N[C@@H](CC(C)C)C(=O)N2C[C@H](F)[C@H]3OCC(=O)[C@H]32)cc1 [Comparative Example 3, reference compound] |  |  |  | 1.67 to 2.5 h |  |  |  |  |
| Cc1sc(N2CCN(C)CC2)nc1-c1ccc(C(=O)N[C@@H](CC(C)C)C(=O)N2C[C@@H](Cl)[C@H]3OCC(=O)[C@H]32)cc1 [Example 5, N-[1-(6-chloro-3-oxo-hexahydro-furo[3,2-b]pyrrol-4-carbonyl)-3-methyl-butyl]-4-[5-methyl-2-(4-methyl-piperazin-1-yl)-thiazol-4-yl]-benzamide] | > 7.30 | 6.00 to 6.30 | 5.00 to 5.30 | 3.3 h | 8.80 | 6.06 | 5.12 |  |
| CC(C)C[C@H](NC(=O)c1ccc(-c2csc(N3CCN(C)CC3)n2)cc1)C(=O)N1C[C@@H](Cl)[C@H]2OCC(=O)[C@H]21 [Example 6, N—[(S)-1-((3aS,6R,6aS)-6-chloro-3-oxo-hexahydro-furo[3,2-b]pyrrole-4-carbonyl)-3-methyl-butyl]-4-[2-(4-methyl-piperazin-1-yl)-thiazol-4-yl]benzamide] | > 7.30 | 6.00 to 6.30 | 5.30 to 6.00 |  | 8.82 | 6.05 | 5.40 | t1/2 minutes [3, 6]: >5 h; half-life at 2 μM ([3]; pooled human liver cytosol, pH 7.4, human liver cytosol, read-out: cytosol half life): > 5 h |
| CN1CCN(c2nc(-c3ccc(C(=O)N[C@H](C(=O)N4C[C@@H](Cl)[C@H]5OCC(=O)[C@H]54)C4CCCCC4)cc3)cs2)CC1 [Example 7, N-[2-((3aS,6R,6aS)-6-Chloro-3-oxo-hexahydro-furo[3,2-b]pyrrole-4-yl)-1-S-cyclohexyl-2-oxo-ethyl]-4-[2-(4-methyl-piperazin-1-yl)-thiazol-4-yl]-benzamide] | > 7.30 | 5.30 to 6.00 | 5.30 to 6.00 |  | 8.38 | 5.92 | 5.77 |  |
| CN1CCN(c2nc(-c3ccc(C(=O)N[C@@H](CC(C)(C)F)C(=O)N4C[C@@H](Cl)[C@H]5OCC(=O)[C@H]54)cc3)cs2)CC1 [Example 8, N—[(S)-1-((3aS,6R,6aS)-6-chloro-3-oxo-hexahydro-furo[3,2-b]pyrrole-4-carbonyl)-3-fluoro-3-methyl-butyl]-4-[2-(4-methyl-piperazin-1-yl)-thiazol-4-yl]benzamide] | > 7.30 | 5.30 to 6.00 | < 5.00 |  | 8.48 | 5.54 | 4.89 |  |
| CC(C)C[C@H](NC(=O)c1ccc(-c2csc(N3CCN(C)CC3)n2)c(F)c1)C(=O)N1C[C@@H](Cl)[C@H]2OCC(=O)[C@H]21 [Example 10, N—[(S)-1-((3aS,6R,6aS)-6-Chloro-3-oxo-hexahydro-furo[3,2-b]pyrrole-4-carbonyl)-3-methyl-butyl]-3-fluoro-4-[2-(4-methyl-piperazin-1-yl)-thiazol-4-yl]-benzamide] | > 7.30 | 6.30 to 7.30 | 5.30 to 6.00 |  | 8.47 | 6.31 | 5.33 | Papp at 120 min, 10 μM [4]: 5.2 ×10⁻⁶ cm/s |
| CC(C)C[C@H](NC(=O)c1ccc(-c2csc(N3CCN(C)CC3)n2)c(F)c1)C(=O)N1C[C@@H](Cl)[C@H]2OCC(=O)[C@H]21 [Example 11] |  |  |  | 3 h |  |  |  |  |
| N[C@@H](Cc1ccccc1)C(=O)O [L-Phenylalanine] |  |  |  |  |  |  |  | % absorption in man [5]: 100% |
| OC[C@@H](O)[C@@H](O)[C@H](O)[C@H](O)CO [Mannitol] |  |  |  |  |  |  |  | % absorption in man [5]: 16% |
| CN(Cc1cnc2nc(N)nc(N)c2n1)c1ccc(C(=O)N[C@@H](CCC(=O)O)C(=O)O)cc1 [Methotrexate] |  |  |  |  |  |  |  | % absorption in man [5]: 20% |
